This note sets out measurements from PubChem BioAssay (NCI).

Test systems include NCI/ADR-RES ovarian; SR leukemia; SK-MEL-5 melanoma; HCC-2998 colon; PC-3 prostate; RPMI-8226 leukemia; HCT-15 colon; CCRF-CEM leukemia; MDA-MB-231 breast; T-47D breast.
Experiment in all cases: DTP human tumour cell line panel, 48 h

SMILES strings stand for the structures.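 Where inhibition never reached the appropriate level, the endpoint shown equals the highest concentration tested. Otherwise, values were interpolated linearly from a five-concentration, 48-hour dose response in 96-well plates. GI50 marks 50% less growth. Definition used: TGI = concentration required for complete inhibition of growth.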

For the compound `COc1cc2c3c(n(CCCN)c(=O)c2cc1OC)-c1ccc([N+](=O)[O-])cc1C3=O`, the GI50 (commonly the concentration at which growth is held to half of that of the control) was 14 µM in the experiment with NCI/ADR-RES ovarian; 0.0731 µM in the experiment on SR leukemia; 5.23 µM in the experiment with SK-MEL-5 melanoma; 2.29 µM in the experiment on HCC-2998 colon; 7.63 µM with PC-3 prostate; 1.75 µM in the experiment on RPMI-8226 leukemia. The GI50 with HCT-15 colon was 5.83 µM; in the experiment with CCRF-CEM leukemia, 0.15 µM; in the experiment on MDA-MB-231 breast it was 18.9 µM; with T-47D breast it was 3.86 µM. Further, the total growth inhibition concentration (TGI) (commonly the concentration giving total growth inhibition) was greater than 100 µM in the experiment with NCI/ADR-RES ovarian; 10.4 µM in the experiment with SR leukemia; 19.5 µM in the experiment on SK-MEL-5 melanoma; 13.6 µM with HCC-2998 colon; 22.9 µM with PC-3 prostate; 4.91 µM with RPMI-8226 leukemia. For the same compound, the TGI came to 19 µM with HCT-15 colon, 2.73 µM in the experiment with CCRF-CEM leukemia, 34.6 µM with MDA-MB-231 breast and 20.2 µM in the experiment with T-47D breast.

`COc1ccc(/C=C(/c2ccccc2)[N+](=O)[O-])c(OC)c1`: the GI50 in the experiment with NCI/ADR-RES ovarian is 1.72 µM; in the experiment with SR leukemia it was 0.641 µM; in the experiment on SK-MEL-5 melanoma, 1.79 µM; with HCC-2998 colon it was 1.92 µM; in the experiment on PC-3 prostate, 1.32 µM; in the experiment on RPMI-8226 leukemia, 0.372 µM. Also, the GI50 with HCT-15 colon was 0.576 µM; in the experiment on CCRF-CEM leukemia, 0.46 µM; in the experiment with MDA-MB-231 breast it was 2 µM; in the experiment with T-47D breast, 0.668 µM. The TGI in the experiment on NCI/ADR-RES ovarian is 5.63 µM; with SR leukemia it was 16.2 µM; with SK-MEL-5 melanoma it was 3.26 µM; with HCC-2998 colon it was 3.4 µM; in the experiment with PC-3 prostate, 2.79 µM; in the experiment with RPMI-8226 leukemia, 1.64 µM. The TGI in the experiment on HCT-15 colon turned out to be 2.13 µM; in the experiment on CCRF-CEM leukemia, 4.76 µM; in the experiment on MDA-MB-231 breast it was 4.16 µM; in the experiment on T-47D breast, 4.21 µM.

Take `C=C(C)[C@@H]1CCC=C2CC[C@]3(C)[C@H](CC[C@@H]4[C@@]5(C)CCCNC(C)(C)[C@@H]5CC[C@]43C)[C@H]21`: the GI50 in the experiment with SR leukemia is 1.25 µM; in the experiment with SK-MEL-5 melanoma, 3.58 µM; with PC-3 prostate it was 2.31 µM; with RPMI-8226 leukemia, 2.14 µM; in the experiment on CCRF-CEM leukemia, 2.48 µM; with MDA-MB-231 breast, 1.77 µM. Also, the GI50 in the experiment on T-47D breast is 1.77 µM. Further, the TGI with SR leukemia was 3.65 µM; in the experiment on SK-MEL-5 melanoma, 14 µM; with PC-3 prostate, 6.21 µM; in the experiment with RPMI-8226 leukemia it was 5.15 µM; in the experiment on CCRF-CEM leukemia it was 7.21 µM; in the experiment on MDA-MB-231 breast, 3.31 µM. In addition, in the experiment with T-47D breast, the TGI stood at 4.83 µM.

On to `O=[N+]([O-])c1cc[n+]([O-])c2ccccc12`, for which the GI50 was 0.965 µM in the experiment with NCI/ADR-RES ovarian; 0.0245 µM with SR leukemia; 0.184 µM in the experiment with SK-MEL-5 melanoma; 0.347 µM in the experiment with HCC-2998 colon; 0.222 µM with PC-3 prostate; 0.0439 µM in the experiment on RPMI-8226 leukemia. The GI50 in the experiment with HCT-15 colon is 0.279 µM; in the experiment on CCRF-CEM leukemia it was 1.55 µM; in the experiment on MDA-MB-231 breast, 0.282 µM; in the experiment with T-47D breast it was 0.321 µM. The TGI with NCI/ADR-RES ovarian was 4.86 µM; with SR leukemia, greater than 100 µM; in the experiment with SK-MEL-5 melanoma, 0.437 µM; in the experiment with HCC-2998 colon, 0.8 µM; in the experiment on PC-3 prostate, 2.36 µM; in the experiment with RPMI-8226 leukemia, 0.358 µM. Besides, the TGI in the experiment on HCT-15 colon amounted to 1.42 µM; in the experiment with CCRF-CEM leukemia it was 5.27 µM; in the experiment on MDA-MB-231 breast, 1.48 µM; with T-47D breast, 4.25 µM.

On to `O=C(O)C(Cc1cnc[nH]1)N1C(=O)c2ccccc2C1=O` (centres undefined), for which the TGI in the experiment with NCI/ADR-RES ovarian, in the experiment on SR leukemia, in the experiment on SK-MEL-5 melanoma, in the experiment with PC-3 prostate, in the experiment with RPMI-8226 leukemia and in the experiment on HCT-15 colon was greater than 100 µM each time. For the same compound, the TGI in the experiment on MDA-MB-231 breast and with T-47D breast was greater than 100 µM throughout.

For the compound `O=S(=O)(NC1CCCCC1)c1ccc2c(c1)OCCOCCOCCOCCO2`, the TGI in the experiment with SR leukemia, with SK-MEL-5 melanoma, in the experiment with HCC-2998 colon, in the experiment with PC-3 prostate, in the experiment with RPMI-8226 leukemia and with HCT-15 colon was greater than 100 µM throughout. Also, the TGI in the experiment with CCRF-CEM leukemia, in the experiment with MDA-MB-231 breast and in the experiment with T-47D breast was greater than 100 µM each time.

Take `O=C1c2cc(Cc3ccccc3)c(=O)c(Cc3ccccc3)cc2C(=O)c2cc(Cc3ccccc3)c(=O)c(Cc3ccccc3)cc21`: the TGI with NCI/ADR-RES ovarian, with SR leukemia, with SK-MEL-5 melanoma, with HCC-2998 colon, in the experiment on PC-3 prostate and in the experiment on RPMI-8226 leukemia was greater than 100 µM each time. Further, the TGI in the experiment on HCT-15 colon, in the experiment with CCRF-CEM leukemia and in the experiment with MDA-MB-231 breast was greater than 100 µM in each case.

As to `CC(C)N(C(=O)c1cccc(C(=O)N(C(C)C)C(C)C)c1)C(C)C`, the TGI in the experiment on SR leukemia was greater than 100 µM; in the experiment on SK-MEL-5 melanoma it was greater than 100 µM; in the experiment on HCC-2998 colon, greater than 100 µM; with RPMI-8226 leukemia it was 67.1 µM; with HCT-15 colon it was greater than 100 µM; with CCRF-CEM leukemia, greater than 100 µM.

Consider `O=C(Oc1cccc(Cl)c1)c1ccccc1Nc1ccnc(C(F)(F)F)c1`, for which the GI50 in the experiment with NCI/ADR-RES ovarian was 2.24 µM; with SR leukemia, 0.434 µM; with SK-MEL-5 melanoma it was 2.59 µM; in the experiment on HCC-2998 colon, 3.46 µM; in the experiment on PC-3 prostate, 7.39 µM; in the experiment with RPMI-8226 leukemia, 1.83 µM. Moreover, the GI50 with CCRF-CEM leukemia was 0.898 µM; with MDA-MB-231 breast it was 1.69 µM. The TGI in the experiment on NCI/ADR-RES ovarian was 6.1 µM; in the experiment on SR leukemia, greater than 100 µM; in the experiment on SK-MEL-5 melanoma it was 6.73 µM; with HCC-2998 colon it was 6.66 µM; in the experiment on PC-3 prostate, 23.6 µM; in the experiment with RPMI-8226 leukemia, 4.33 µM. The TGI with CCRF-CEM leukemia came to 91.6 µM; in the experiment on MDA-MB-231 breast, 4.7 µM.

As to `C=CO/N=[N+](\[O-])N(CC)CC`, the TGI with NCI/ADR-RES ovarian, in the experiment with SR leukemia, with SK-MEL-5 melanoma, in the experiment on HCC-2998 colon, in the experiment with RPMI-8226 leukemia and with HCT-15 colon was greater than 100 µM throughout. Further, the TGI in the experiment on CCRF-CEM leukemia, with MDA-MB-231 breast and with T-47D breast was greater than 100 µM in each case.

`C(/C=N/NC1=NCCCCN1)=N\NC1=NCCCCN1`: the TGI in the experiment with NCI/ADR-RES ovarian, with SR leukemia, in the experiment on SK-MEL-5 melanoma, in the experiment with HCC-2998 colon, in the experiment on PC-3 prostate and in the experiment on CCRF-CEM leukemia was greater than 100 µM in each case. Also, the TGI with MDA-MB-231 breast and in the experiment with T-47D breast was greater than 100 µM in each case.
